Results published in paper PMC2896318 (Biochemistry, 2009).
Where two headings read alike, the source gives them in different places.

Tests used:
[1] = Spontaneous hydrolysis of diaroyl phosphates in buffer; format: physicochemical; details: values are ko × 10^6; 25 mM MOPS buffer, pH 7.5, 25 °C
[2] = biological target: T1, Enterobacter cloacae P99 β-lactamase (Enterobacter cloacae, UniProt P05364); details: previously determined ratio; cited from earlier work
[3] = biological target: Escherichia coli W3310 TEM-2 β-lactamase (Escherichia coli, UniProt P62593, Q37K); experiment: Inhibition and turnover kinetics with TEM-2 β-lactamase; format: biochemical; details: for TEM k2 × 10^3 (deacylation rate constant): values are k2 × 10^3, pH 7.5, 25 °C
[4] = biological target: T1, Enterobacter cloacae P99 β-lactamase; details: for Ki: read-out: P99 K1
OXA-1 β-lactamase = OXA-1 β-lactamase (Escherichia coli, UniProt P13661); experiment: Inhibition of class D β-lactamase OXA-1; format: biochemical
Sequence of OXA-1 β-lactamase (P13661 26-276): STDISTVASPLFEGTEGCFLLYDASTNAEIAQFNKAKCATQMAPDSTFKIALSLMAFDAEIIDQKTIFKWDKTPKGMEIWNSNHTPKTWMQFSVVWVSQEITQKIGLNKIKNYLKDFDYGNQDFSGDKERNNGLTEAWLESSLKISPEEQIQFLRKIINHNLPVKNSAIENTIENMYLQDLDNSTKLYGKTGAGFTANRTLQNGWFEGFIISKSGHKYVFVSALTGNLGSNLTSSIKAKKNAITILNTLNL

[5] = biological target: T1, Enterobacter cloacae P99 β-lactamase; experiment: biochemical
[6] = high inhibitor concentrations (>100 μM)
[7] = footnote b: calculated from ki = k2/Ki

T1 sequence (P05364 21-381): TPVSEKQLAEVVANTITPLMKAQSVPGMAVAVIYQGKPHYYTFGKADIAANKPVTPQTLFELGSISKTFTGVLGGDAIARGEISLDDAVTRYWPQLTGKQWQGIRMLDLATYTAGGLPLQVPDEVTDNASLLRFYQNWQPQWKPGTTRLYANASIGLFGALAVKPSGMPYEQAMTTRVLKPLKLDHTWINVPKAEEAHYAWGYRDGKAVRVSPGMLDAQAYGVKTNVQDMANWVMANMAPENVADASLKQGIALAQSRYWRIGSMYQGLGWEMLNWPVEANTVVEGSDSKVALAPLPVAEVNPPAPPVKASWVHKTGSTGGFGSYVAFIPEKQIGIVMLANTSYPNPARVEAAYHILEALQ

Compound	ko × 10^6 (spontaneous hydrolysis rate constant) [1]	k3/k2 (methanol vs water partitioning of acyl-enzyme) [2]	k3 (rearrangement of EI to more inert EI′, Scheme 5) [3, 6]	k4 (breakdown of EI′ to free enzyme, Scheme 5) [3, 6]	TEM ki (acylation rate constant) ([3]; pH 7.5, 20 mM MOPS, 25 °C, from progress curve fits)	Ki ([3]; read-out: TEM Ki, footnote a: calculated from Ki = k2/ki)	TEM k2 × 10^3 (deacylation rate constant) [3]	P99 k2 × 10^3 (deacylation rate constant) ([4]; pH 7.5)	P99 ki (acylation rate constant) ([4]; pH 7.5)	Ki [4]	Ki (OXA-1 β-lactamase; read-out: Ki for OXA-1, class D β-lactamase)	TEM ki (acylation rate constant) [3, 7]	P99 ki (acylation rate constant) [4]	Ki (OXA-1 β-lactamase)	Ki [5]	P99 k2 × 10^3 (deacylation rate constant) ([4]; values are k2 × 10^3, pH 7.5, 25 °C)
O=C(OP(=O)(O)OC(=O)c1ccccc1)c1ccccc1 [compound 5, dibenzoyl phosphate]	0.78 s^−1	23.6	(3.3 ± 0.7) × 10^−4 s^−1	0.00015 s⁻¹	0.5 ± 0.1 s⁻¹ mM⁻¹	76 µM	38 ± 3 s^−1	9.3 ± 0.2 s^−1	7 ± 1 s⁻¹ mM⁻¹	1330 nM						
O=C(OP(=O)([O-])OC(=O)c1cc2ccccc2s1)c1cc2ccccc2s1.[Na+] [compound 11, Sodium bis[benzo(b)thiophenecarbonyl] phosphate]	54.1 s^−1						79 ± 2 s^−1	211 ± 6 s^−1		3 nM	0.06 µM	53 ^b s^−1mM^−1	69600 ^b s^−1mM^−1			
O=C(OP(=O)([O-])OC(=O)c1cc2ccccc2o1)c1cc2ccccc2o1.[Na+] [compound 12, Sodium bis[2-benzo(b)furancarbonyl] phosphate]	285 s^−1						74 ± 1 s^−1					1.8 ^b s^−1mM^−1		14.2 µM	1300 ± 300 nM	354 ± 26 s^−1
